Assay results taken from patent US4496587A, “Inhibition of bacterial toxin release by prostaglandins” (priority 1983, dated 1985).

How the values were obtained:
[1] = by acid in the stomach; cited from earlier work
C. difficile [2] = experiment: cytotoxin in filtrates of C. difficile cultures grown in the presence of prostaglandin (Prostaglandin Incubated with C. difficile), titrated on HFF mono-layers; type: cell-based; conditions: for effectiveness as an antitoxic prostaglandin: by itself, in words; for decrease of the amount of toxin released from C. difficile: assay described in Example 1, pharmacologically practical amount, definition of antitoxic prostaglandin
Protocol: (§1) Forty-five filtrates of C. difficile cultures grown in the presence of different concentrations of 16,16-dimethyl-PGE2 were assayed for cytotoxin. (ATCC 9689 stands for American Type Culture Collection number 9689, and patients 1, 2, 3, and 4 refer to cultures extracted from various hospital patients.) The first 25 cultures were incubated with the prostaglandin (in the concentrations noted) for 24 hr. These cultures were then filtered and the supernate was submitted for cytotoxicity testing. The remaining 20 cultures were incubated without prostaglandin, filtered and then the prostaglandin was added to each supernate prior to cytotoxicity testing. The cytotoxin assay utilized human skin fibroblasts (HFF) as mono-layers in Costar 24 well-trays. The results are presented as the reciprocal of the cytotoxin dilution (serial 10-fold) causing altered cell morphology for 50% of the cells in the mono-layer. (see Table II.) Thus, 1000 means that a 1:1000 dilution of the filtrate caused an altered cell morphology for 50% of the cells in the mono-layer. Therefore, the higher the number, the more cytotoxin is present.

[3] = tested on: Human skin fibroblasts (HFF); experiment: attempted protection of HFF from cytotoxins from different sources (altered cell morphology); type: cell-based
Protocol: To determine whether the presence of 16,16-dimethyl-PGE2 might interfere with the cytotoxin assay, several concentrations of cytotoxins were assayed in the presence of various concentrations of a prostaglandin.
The cytotoxins used were from hamster cecum, a filtrate of C. difficile broth culture, and the filtate of human feces from a patient with "antibiotic diarrhea". Serial 10-fold dilutions of the cytotoxins were prepared in BME-3% fbs. (BME 3% fbs is basal medium of Eagle with 3% fetal bovine (BOVINE Serum and antibiotics.))
16,16-Dimethyl-PGE2 (5 mg/ml in absolute ethanol) was used and further diluted in absolute ethanol.
Human skin fibroblasts (HFF) monolayers in wells of Costar trays (24 well) were refed with 0.8 ml BME-3% fbs. 0.1 ml of the various prostaglandin concentrations and absolute ethanol alone were added to the appropriate wells. Separate wells were then treated with (0.1 ml) of the appropriate dilution of each cytotoxin. The trays were incubated at 37° and examined microscopically for evidence of altered cell morphology.
Attempted protection of HFF from cytotoxins from different
sources by 16,16-dimethyl-PGE2. The results are expressed as the
number of cells showing evidence of altered morphology due to
cytotoxin. (0 = no change, +1 = 25% of the cells are rounded,
+ 2 = 50% of the cells are rounded, +3 = 75% of the cells are
rounded, and +4 = 100% of the cells are rounded. Tox =
toxic concentration of prostaglandin.)

C. difficile [4] = experiment: cytotoxin assay, prostaglandin added to supernate after incubation of C. difficile (Prostaglandin Added After Incubation), titrated on HFF mono-layers; type: cell-based
Protocol: as §1

CCCCC[C@@](C)(O)/C=C/[C@H]1[C@H](O)CC(=O)[C@@H]1C/C=C\CCCC(=O)O [15(R)-15-methyl-PGE2]
conversion in mammalian metabolism [1]: converted by acid in the stomach to 15(S)-15-methyl-PGE2
effectiveness as an antitoxic prostaglandin (C. difficile [2]): not highly effective

CCCCC[C@](C)(O)/C=C/[C@H]1[C@H](O)CC(=O)[C@@H]1C/C=C\CCCC(=O)O [15(S)-15-methyl-PGE2]
decrease of the amount of toxin released from C. difficile (C. difficile [2]): at least 90%
effectiveness as an antitoxic prostaglandin (C. difficile [2]): effective

CCCCC(C)(C)[C@@](C)(O)/C=C/[C@H]1[C@H](O)CC(=O)[C@@H]1C/C=C\CCCC(=O)O [15(S)-16,16-trimethyl-PGE2]
decrease of the amount of toxin released from C. difficile (C. difficile [2]): at least 90%

CCCCC(C)(C)[C@H](O)/C=C/[C@H]1[C@H](O)CC(=O)[C@@H]1C/C=C\CCCC(=O)O [16,16-dimethyl-PGE2]
cells showing evidence of altered morphology due to cytotoxin ([3]; C. difficile filtrate 1:10, prostaglandin 0.01 mcg/ml): 4
cells showing evidence of altered morphology due to cytotoxin ([3]; C. difficile filtrate 1:10, prostaglandin 0.1 mcg/ml): 4
cells showing evidence of altered morphology due to cytotoxin ([3]; C. difficile filtrate 1:10, prostaglandin 1 mcg/ml): 4
cells showing evidence of altered morphology due to cytotoxin ([3]; C. difficile filtrate 1:10, prostaglandin 10 mcg/ml): 4
cells showing evidence of altered morphology due to cytotoxin ([3]; C. difficile filtrate 1:100, prostaglandin 0.01 mcg/ml): 4
cells showing evidence of altered morphology due to cytotoxin ([3]; C. difficile filtrate 1:100, prostaglandin 0.1 mcg/ml): 4
cells showing evidence of altered morphology due to cytotoxin ([3]; C. difficile filtrate 1:100, prostaglandin 1 mcg/ml): 4
cells showing evidence of altered morphology due to cytotoxin ([3]; C. difficile filtrate 1:100, prostaglandin 10 mcg/ml): 4
cells showing evidence of altered morphology due to cytotoxin ([3]; C. difficile filtrate 1:1000, prostaglandin 0.01 mcg/ml): 3
cells showing evidence of altered morphology due to cytotoxin ([3]; C. difficile filtrate 1:1000, prostaglandin 0.1 mcg/ml): 3
cells showing evidence of altered morphology due to cytotoxin ([3]; C. difficile filtrate 1:1000, prostaglandin 1 mcg/ml): 3
cells showing evidence of altered morphology due to cytotoxin ([3]; C. difficile filtrate 1:1000, prostaglandin 10 mcg/ml): 3
cells showing evidence of altered morphology due to cytotoxin ([3]; Human cytotoxin 1:10, prostaglandin 0.01 mcg/ml): 4
cells showing evidence of altered morphology due to cytotoxin ([3]; Human cytotoxin 1:10, prostaglandin 0.1 mcg/ml): 4
cells showing evidence of altered morphology due to cytotoxin ([3]; Human cytotoxin 1:10, prostaglandin 1 mcg/ml): 4
cells showing evidence of altered morphology due to cytotoxin ([3]; Human cytotoxin 1:10, prostaglandin 10 mcg/ml): 4
cells showing evidence of altered morphology due to cytotoxin ([3]; Human cytotoxin 1:100, prostaglandin 0.01 mcg/ml): 4
cells showing evidence of altered morphology due to cytotoxin ([3]; Human cytotoxin 1:100, prostaglandin 0.1 mcg/ml): 4
cells showing evidence of altered morphology due to cytotoxin ([3]; Human cytotoxin 1:100, prostaglandin 1 mcg/ml): 4
cells showing evidence of altered morphology due to cytotoxin ([3]; Human cytotoxin 1:100, prostaglandin 10 mcg/ml): 3
cells showing evidence of altered morphology due to cytotoxin ([3]; Human cytotoxin 1:1000, prostaglandin 0.01 mcg/ml): 1
cells showing evidence of altered morphology due to cytotoxin ([3]; Human cytotoxin 1:1000, prostaglandin 0.1 mcg/ml): 1
cells showing evidence of altered morphology due to cytotoxin ([3]; Human cytotoxin 1:1000, prostaglandin 1 mcg/ml): 1
cells showing evidence of altered morphology due to cytotoxin ([3]; Human cytotoxin 1:1000, prostaglandin 10 mcg/ml): 1
effect on the interaction of the cytotoxin with the cell ([3]; conclusion from Table III): did not affect the interaction of the cytotoxin with the cell
protecting fibroblasts from morphological changes due to the action of the cytotoxin ([3]; cytotoxins from three different sources): ineffective
Cytotoxin Dilution (reciprocal of the cytotoxin dilution causing altered cell morphology for 50% of the cells) (C. difficile [2]; Control, 24 hr, prostaglandin 1 mcg/ml): < 10
Cytotoxin Dilution (reciprocal of the cytotoxin dilution causing altered cell morphology for 50% of the cells) (C. difficile [2]; Control, 24 hr, prostaglandin 10 mcg/ml): < 10
Cytotoxin Dilution (reciprocal of the cytotoxin dilution causing altered cell morphology for 50% of the cells) (C. difficile [2]; Control, 24 hr, prostaglandin 50 mcg/ml): < 10
amount of toxin with increasing amount of prostaglandin (C. difficile [2]; Table II overall): as the amount of prostaglandin increases, the amount of toxin decreases
decrease of the amount of toxin released from C. difficile (C. difficile [2]): at least 90%
Cytotoxin Dilution (reciprocal of the cytotoxin dilution causing altered cell morphology for 50% of the cells) (C. difficile [2]; incubated with C. difficile ATCC #9689, 24 hr, prostaglandin 1 mcg/ml): 100-1000
Cytotoxin Dilution (reciprocal of the cytotoxin dilution causing altered cell morphology for 50% of the cells) (C. difficile [2]; incubated with C. difficile ATCC #9689, 24 hr, prostaglandin 10 mcg/ml): 100
Cytotoxin Dilution (reciprocal of the cytotoxin dilution causing altered cell morphology for 50% of the cells) (C. difficile [2]; incubated with C. difficile ATCC #9689, 24 hr, prostaglandin 50 mcg/ml): 10
Cytotoxin Dilution (reciprocal of the cytotoxin dilution causing altered cell morphology for 50% of the cells) (C. difficile [2]; incubated with C. difficile strain Patient 1, 24 hr, prostaglandin 1 mcg/ml): 100-1000
Cytotoxin Dilution (reciprocal of the cytotoxin dilution causing altered cell morphology for 50% of the cells) (C. difficile [2]; incubated with C. difficile strain Patient 1, 24 hr, prostaglandin 10 mcg/ml): 10
Cytotoxin Dilution (reciprocal of the cytotoxin dilution causing altered cell morphology for 50% of the cells) (C. difficile [2]; incubated with C. difficile strain Patient 1, 24 hr, prostaglandin 50 mcg/ml): 10
Cytotoxin Dilution (reciprocal of the cytotoxin dilution causing altered cell morphology for 50% of the cells) (C. difficile [2]; incubated with C. difficile strain Patient 2, 24 hr, prostaglandin 1 mcg/ml): 10-100
Cytotoxin Dilution (reciprocal of the cytotoxin dilution causing altered cell morphology for 50% of the cells) (C. difficile [2]; incubated with C. difficile strain Patient 2, 24 hr, prostaglandin 10 mcg/ml): 10-100
Cytotoxin Dilution (reciprocal of the cytotoxin dilution causing altered cell morphology for 50% of the cells) (C. difficile [2]; incubated with C. difficile strain Patient 2, 24 hr, prostaglandin 50 mcg/ml): < 10
Cytotoxin Dilution (reciprocal of the cytotoxin dilution causing altered cell morphology for 50% of the cells) (C. difficile [2]; incubated with C. difficile strain Patient 3, 24 hr, prostaglandin 1 mcg/ml): < 10
Cytotoxin Dilution (reciprocal of the cytotoxin dilution causing altered cell morphology for 50% of the cells) (C. difficile [2]; incubated with C. difficile strain Patient 3, 24 hr, prostaglandin 10 mcg/ml): < 10
Cytotoxin Dilution (reciprocal of the cytotoxin dilution causing altered cell morphology for 50% of the cells) (C. difficile [2]; incubated with C. difficile strain Patient 3, 24 hr, prostaglandin 50 mcg/ml): < 10
Cytotoxin Dilution (reciprocal of the cytotoxin dilution causing altered cell morphology for 50% of the cells) (C. difficile [2]; incubated with C. difficile strain Patient 4, 24 hr, prostaglandin 1 mcg/ml): 100
Cytotoxin Dilution (reciprocal of the cytotoxin dilution causing altered cell morphology for 50% of the cells) (C. difficile [2]; incubated with C. difficile strain Patient 4, 24 hr, prostaglandin 10 mcg/ml): 10-100
Cytotoxin Dilution (reciprocal of the cytotoxin dilution causing altered cell morphology for 50% of the cells) (C. difficile [2]; incubated with C. difficile strain Patient 4, 24 hr, prostaglandin 50 mcg/ml): 10
Cytotoxin Dilution (reciprocal of the cytotoxin dilution causing altered cell morphology for 50% of the cells) (C. difficile [4]; ATCC #9689, prostaglandin 1 mcg/ml): 100-1000
Cytotoxin Dilution (reciprocal of the cytotoxin dilution causing altered cell morphology for 50% of the cells) (C. difficile [4]; ATCC #9689, prostaglandin 10 mcg/ml): 10-100
Cytotoxin Dilution (reciprocal of the cytotoxin dilution causing altered cell morphology for 50% of the cells) (C. difficile [4]; ATCC #9689, prostaglandin 50 mcg/ml): 10
Cytotoxin Dilution (reciprocal of the cytotoxin dilution causing altered cell morphology for 50% of the cells) (C. difficile [4]; Patient 1, prostaglandin 1 mcg/ml): 1000
Cytotoxin Dilution (reciprocal of the cytotoxin dilution causing altered cell morphology for 50% of the cells) (C. difficile [4]; Patient 1, prostaglandin 10 mcg/ml): < 100
Cytotoxin Dilution (reciprocal of the cytotoxin dilution causing altered cell morphology for 50% of the cells) (C. difficile [4]; Patient 1, prostaglandin 50 mcg/ml): 100
Cytotoxin Dilution (reciprocal of the cytotoxin dilution causing altered cell morphology for 50% of the cells) (C. difficile [4]; Patient 2, prostaglandin 1 mcg/ml): 10
Cytotoxin Dilution (reciprocal of the cytotoxin dilution causing altered cell morphology for 50% of the cells) (C. difficile [4]; Patient 2, prostaglandin 10 mcg/ml): 10
Cytotoxin Dilution (reciprocal of the cytotoxin dilution causing altered cell morphology for 50% of the cells) (C. difficile [4]; Patient 2, prostaglandin 50 mcg/ml): < 10
Cytotoxin Dilution (reciprocal of the cytotoxin dilution causing altered cell morphology for 50% of the cells) (C. difficile [4]; Patient 3, prostaglandin 1 mcg/ml): < 10
Cytotoxin Dilution (reciprocal of the cytotoxin dilution causing altered cell morphology for 50% of the cells) (C. difficile [4]; Patient 3, prostaglandin 10 mcg/ml): < 10
Cytotoxin Dilution (reciprocal of the cytotoxin dilution causing altered cell morphology for 50% of the cells) (C. difficile [4]; Patient 4, prostaglandin 1 mcg/ml): 100-1000
Cytotoxin Dilution (reciprocal of the cytotoxin dilution causing altered cell morphology for 50% of the cells) (C. difficile [4]; Patient 4, prostaglandin 10 mcg/ml): 100
Cytotoxin Dilution (reciprocal of the cytotoxin dilution causing altered cell morphology for 50% of the cells) (C. difficile [4]; Patient 4, prostaglandin 50 mcg/ml): 10-100
